Assay results: the supplement of paper PMC11579375

Legend:
Assay in all cases: area under the viability dose-response curve (AUC) (AUC (arbitrary units, max 500 = no viability loss)); higher = less sensitive (higher viability)
Settings in all cases: exposure time: 120 h; concentration range: 0.1 nM - 10 µM, 6 doses
135F2 = tested on: 135F2 (fetal-II hepatoblastoma organoid with high liver markers)
Method: (§1)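 Patient-derived hepatoblastoma tumor organoids (about 50 organoids per well, 384-well plates, medium with 5% BME) were treated with the PMC pediatric cancer drug library. Each drug was tested in duplicate at 6 concentrations (0.1 nM to 10 µM, 10-fold steps).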

22E = tested on: 22E (embryonal-type hepatoblastoma organoid)
Method: as §1

27F1 = tested on: 27F1 (fetal-I hepatoblastoma organoid with intermediate liver markers)
Method: as §1

3E = tested on: 3E (embryonal-type hepatoblastoma organoid)
Method: as §1

8F1 = tested on: 8F1 (fetal-I hepatoblastoma organoid with intermediate liver markers)
Method: as §1

96F1 = tested on: 96F1 (fetal-I hepatoblastoma organoid with intermediate liver markers)
Method: as §1

10F2 = tested on: 10F2 (fetal-II hepatoblastoma organoid with high liver markers)
Method: as §1

13E = tested on: 13E (embryonal-type hepatoblastoma organoid)
Method: as §1

13F2 = tested on: 13F2 (fetal-II hepatoblastoma organoid with high liver markers)
Method: as §1

17E = tested on: 17E (embryonal-type hepatoblastoma organoid)
Method: as §1

17F1 = tested on: 17F1 (fetal-I hepatoblastoma organoid with intermediate liver markers)
Method: as §1

Row | Structure (SMILES) | area under the viability dose-response curve (135F2) | area under the viability dose-response curve (22E) | area under the viability dose-response curve (27F1) | area under the viability dose-response curve (3E) | area under the viability dose-response curve (8F1) | area under the viability dose-response curve (96F1) | area under the viability dose-response curve (10F2) | area under the viability dose-response curve (13E) | area under the viability dose-response curve (13F2) | area under the viability dose-response curve (17E) | area under the viability dose-response curve (17F1)
1 | CC(C)(CN1C(=O)C(Cl)=C(Cl)C1=O)CN1C(=O)C(Cl)=C(Cl)C1=O | 497 | 427 | > 500 | > 500 | > 500 | > 500 | – | – | – | – | –
2 | CC(C)n1c(=O)n(C)c2cnc3cc(F)c(-c4ccc(OCCCN5CCCCC5)nc4)cc3c21 [AZD1390] | 440 | > 500 | > 500 | 491 | 486 | 471 | – | – | – | – | –
3 | O=C(Nc1ccc(Cl)c(C(F)(F)F)c1)NC1CCC(Oc2ccc(C(F)(F)F)cn2)CC1 (centres undefined) [UC2288] | 468 | 477 | 490 | 371 | 486 | 484 | – | – | – | – | –
4 | N#Cc1c(Oc2ccc(F)c(NC(=O)Cc3cccc(C(F)(F)F)c3)c2)ccc2nc(NC(=O)C3CC3)sc12 [TAK632] | 393 | 455 | 467 | 472 | 478 | 417 | – | – | – | – | –
5 | CO[C@H]1C[C@@H]2CC[C@@H](C)[C@@](O)(O2)C(=O)C(=O)N2CCCC[C@H]2C(=O)O[C@H]([C@H](C)C[C@@H]2CC[C@@H](O)[C@H](OC)C2)CC(=O)[C@H](C)/C=C(\C)[C@@H](O)[C@@H](OC)C(=O)[C@H](C)C[C@H](C)/C=C/C=C/C=C/1C [Sirolimus] | 464 | – | > 500 | 249 | 476 | > 500 | 391 | 389 | 319 | 257 | > 500
6 | CNCc1ccccc1-c1csc([C@@H](C)Nc2nc(C)nc3cc(OC)c(OC)cc23)c1 [BAY-293] | 446 | – | 488 | 458 | > 500 | 461 | – | – | – | – | –
7 | COc1c(OCCCN2CCOCC2)ccc2c1N=C(NC(=O)c1cnc(N)nc1)N1CCN=C21 [Copanlisib] | 315 | 300 | 485 | > 500 | 390 | 352 | – | – | – | – | –
8 | CNC(=O)c1cc(Oc2ccc(NC(=O)Nc3ccc(Cl)c(C(F)(F)F)c3)c(F)c2)ccn1 [Regorafenib] | 404 | – | 447 | 387 | 290 | 452 | 389 | 418 | 430 | 456 | 428
9 | Nc1cc(F)ccc1NC(=O)c1ccc(CNC(=O)/C=C/c2cccnc2)cc1 [Tucidinostat] | 443 | – | 458 | 432 | 472 | 474 | – | – | – | – | –
10 | O=NN(CCCl)C(=O)NC1CCCCC1 [Lomustine] | 487 | 455 | > 500 | 446 | > 500 | 470 | – | – | – | – | –
11 | CNC(=O)c1ccccc1Sc1ccc2c(/C=C/c3ccccn3)n[nH]c2c1 [Axitinib] | 463 | – | 478 | 421 | 495 | 480 | 411 | 427 | 457 | 438 | 499
12 | CC1(N)CCN(c2cnc(-c3cccc(Cl)c3Cl)c(N)n2)CC1 [SHP099] | – | – | 464 | 473 | > 500 | – | 430 | 500 | 479 | > 500 | 483
13 | Cn1nccc1Nc1nccc(-c2cc3c(s2)C(C)(C)N(CCN2CCOCC2)C3=O)n1 [Temuterkib] | 409 | > 500 | 440 | 443 | > 500 | 484 | – | – | – | – | –
14 | COc1cc2/c(=N/c3ccc(Br)cc3F)nc[nH]c2cc1OCC1CCN(C)CC1 [Vandetanib] | 428 | – | 446 | 474 | 487 | 410 | 340 | 459 | 373 | 429 | 449
15 | CN(C)CCNC(=O)c1cccn2c(=O)c3cc4ccccc4cc3nc12 [BMH-21] | 416 | 466 | 434 | 430 | 408 | 445 | – | – | – | – | –
16 | Cn1cc(-c2cc3c(N4CCN(c5ncc([C@@](C)(N)c6ccc(F)cc6)cn5)CC4)ncnn3c2)cn1 [Avapritinib] | 437 | 433 | 473 | 455 | 478 | 452 | – | – | – | – | –
17 | COCC1(CO)C(=O)C2CCN1CC2 (centres undefined) [APR-246] | 495 | – | 462 | > 500 | 480 | 499 | > 500 | > 500 | 487 | 494 | 497
18 | CN(C)C(=O)c1cc2cnc(Nc3ccc(N4CCNCC4)cn3)nc2n1C1CCCC1 [Ribociclib] | 461 | – | 442 | 404 | 470 | 472 | 442 | 446 | 422 | 406 | 473
19 | Cc1c(Cl)ccc2c1N=C/C2=C\c1[nH]c(=O)n(C(C(=O)NC(CO)CO)c2ccc(F)c(F)c2)c1O (centres undefined) [RO-5963] | 459 | 449 | – | – | – | 446 | – | – | – | – | –
20 | CC(C)(O)c1cc(Nc2cc(Oc3cn(C4CC4)nc3C3CCOCC3)ccn2)ccn1 | > 500 | – | > 500 | > 500 | 499 | > 500 | – | – | – | – | –
21 | Cc1sc2c(c1C)C(c1ccc(Cl)cc1)=N[C@@H](CC(=O)NCCCN1CCN(C)CC1)c1nnc(C)n1-2 [(S)-JQ-35] | 388 | 410 | 447 | 309 | 345 | 496 | – | – | – | – | –

Row | Structure (SMILES) | area under the viability dose-response curve (135F2) | area under the viability dose-response curve (22E) | area under the viability dose-response curve (27F1) | area under the viability dose-response curve (3E) | area under the viability dose-response curve (8F1) | area under the viability dose-response curve (96F1) | area under the viability dose-response curve (10F2) | area under the viability dose-response curve (13E) | area under the viability dose-response curve (13F2) | area under the viability dose-response curve (17E) | area under the viability dose-response curve (17F1)
22 | CCN(CC)CCNC(=O)c1c(C)[nH]c(/C=C2\C(=O)Nc3ccc(F)cc32)c1C [Sunitinib] | 437 | – | 498 | 471 | 461 | 464 | 385 | 463 | 419 | 424 | > 500
23 | Cn1cnc2c(F)c(Nc3ccc(Br)cc3Cl)c(C(=O)NOCCO)cc21 [Selumetinib] | 430 | – | 464 | > 500 | > 500 | 491 | 369 | 499 | 412 | > 500 | > 500
24 | O=c1[nH]c(=O)n([C@@H]2O[C@H](CO)[C@@H](O)[C@H]2O)cc1F [5-Fluorouridine] | 303 | 420 | 364 | 319 | 447 | 333 | – | – | – | – | –
25 | NC(=O)/C(=C/n1cnc(-c2cc(C(F)(F)F)cc(C(F)(F)F)c2)n1)c1cncnc1 [Eltanexor] | 371 | – | 429 | 345 | 469 | 406 | – | – | – | – | –
26 | NC(=O)c1cccc2cn(-c3ccc([C@@H]4CCCNC4)cc3)nc12 [Niraparib] | 458 | – | 478 | 461 | > 500 | 492 | 459 | 472 | 455 | 495 | 490
27 | O=C(O)C1(C(=O)O)CCC1.[NH2-].[NH2-].[Pt+2] [Carboplatin] | 494 | > 500 | 487 | 478 | 433 | 476 | 470 | – | 462 | 491 | 494
28 | Cc1cnc(CNC(=O)c2c(=O)c3ccc(N4CCCN(C)CC4)nc3n3c2sc2ccccc23)cn1 [Pidnarulex] | 402 | 436 | 489 | 396 | 472 | 453 | – | – | – | – | –
29 | CC(=O)[C@]1(O)Cc2c(O)c3c(c(O)c2[C@@H](O[C@H]2C[C@H](N)[C@H](O)[C@H](C)O2)C1)C(=O)c1ccccc1C3=O [Idarubicin] | 143 | 313 | 273 | 234 | 373 | 215 | – | – | – | – | –
30 | N#CC1(c2ccc(NC(=O)c3cccnc3NCc3ccncc3)cc2)CCCC1 [Apatinib] | 470 | 438 | > 500 | 491 | 498 | 481 | 490 | 497 | 484 | 476 | –
31 | O=C(NC[C@H](O)CO)c1ccncc1Nc1ccc(I)cc1F [Pimasertib] | 393 | 445 | 457 | 456 | > 500 | 467 | – | – | – | – | –
32 | C/C=C1\NC(=O)[C@H]2CSSCC/C=C/[C@H](CC(=O)N[C@H](C(C)C)C(=O)N2)OC(=O)[C@H](C(C)C)NC1=O [Romidepsin] | 137 | – | 165 | 87.9 | 145 | 54.5 | 141 | 123 | 143 | 104 | 158
33 | O=C(O)C(=O)O.[NH-][C@@H]1CCCC[C@H]1[NH-].[Pt+2] [Oxaliplatin] | – | > 500 | 481 | 490 | 486 | – | 457 | – | 488 | > 500 | > 500
34 | O=P1(N(CCCl)CCCl)NC(OO)CCO1 (centres undefined) [4-Hydroperoxy cyclophosphamide (Cyclophosphamide)] | – | – | – | – | – | – | 465 | > 500 | > 500 | > 500 | > 500
35 | CC[C@H](C)n1cc(C)c2c(C(=O)NCc3c(C)cc(C)[nH]c3=O)cc(-c3ccc(N4CCNCC4)nc3)cc21 [GSK-126] | > 500 | > 500 | 499 | 458 | > 500 | > 500 | – | – | – | – | –
36 | O=P(O)(NCCCl)NCCCl [Palifosfamide (Ifosfamide)] | – | – | – | – | – | – | 474 | 493 | 498 | 473 | 477
37 | Cn1cc(-n2cnc3c(NCc4nc5cc(Cl)c(Cl)cc5[nH]4)nc(N4CCOCC4)nc32)cn1 [SR-4835] | 277 | 327 | 264 | 196 | 292 | 279 | – | – | – | – | –
38 | C[C@@H]1C[C@H](C)CN(S(=O)(=O)c2ccc3c(c2)C(=NO)c2cc(S(=O)(=O)N4C[C@H](C)C[C@H](C)C4)ccc2C3=NO)C1 [Tegavivint] | – | – | – | 236 | 338 | – | – | – | – | – | –
39 | COc1cc2nc(C)nc(N[C@H](C)c3cc(N)cc(C(F)(F)F)c3)c2cc1O[C@H]1CCOC1 [BI-3406] | 472 | – | 481 | > 500 | > 500 | 413 | – | – | – | – | –
40 | N[C@@H]1CCCN(c2c(/C=C3\SC(=O)NC3=O)cccc2-c2ccccc2)C1 [AZD1208] | 487 | – | 471 | 430 | > 500 | > 500 | – | – | – | – | –
41 | COc1cc2c(cc1O)CCN[C@]21CS[C@@H]2c3c(OC(C)=O)c(C)c4c(c3[C@H](COC1=O)N1[C@@H]2[C@H]2c3c(cc(C)c(OC)c3O)C[C@@H]([C@@H]1O)N2C)OCO4 [Trabectedin] | 57.9 | 133 | 117 | 24.1 | 144 | 84.9 | – | – | – | – | –
42 | COCc1c(-c2cc3cc(C)cc(OC)c3s2)c2c(N)ncnn2c1CN1CCNC(=O)C1 [Rogaratinib] | 473 | 440 | 475 | 361 | 496 | 485 | – | – | – | – | –
